Source: ChEMBL document CHEMBL1201862, “PubChem BioAssay data set” (2004)
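96-well plates; 48 h exposure; 5 concentrations. Endpoints by linear interpolation between flanking doses. Not reached: highest tested concentration assigned. GI50 = concentration required for 50% inhibition of growth.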 Active and inactive are the calls of the source. Cut-off read from the data, not from the text of the source: active = GI50 up to about 1.1 µM and inactive = higher.

How the values were obtained:
Test in all cases: NCI anticancer screen, dose series, 48 h
ACHN = test system: ACHN
HCC 2998 = test system: HCC 2998
HCT-116 = test system: HCT-116
HOP-92 = test system: HOP-92
HT-29 = test system: HT-29
KM12 = test system: KM12
MDA-MB-435 = test system: MDA-MB-435
Malme-3M = test system: Malme-3M
NCI-H23 = test system: NCI-H23
OVCAR-4 = test system: OVCAR-4
OVCAR-8 = test system: OVCAR-8
PC-3 = test system: PC-3
RXF 393 = test system: RXF 393
SF-295 = test system: SF-295
SK-MEL-2 = test system: SK-MEL-2
SK-OV-3 = test system: SK-OV-3
SW-620 = test system: SW-620
U-251 = test system: U-251
UACC-257 = test system: UACC-257
UACC-62 = test system: UACC-62

Measured: GI50

Cc1ccc(Nc2n[nH]c(NS(=O)(=O)c3cc(C)c(Cl)cc3S)n2)cc1
inactive: ACHN > 100 µM | HCC 2998 > 100 µM | HCT-116 > 100 µM | HOP-92 > 100 µM | HT-29 > 100 µM | KM12 > 100 µM | MDA-MB-435 > 100 µM | Malme-3M > 100 µM | NCI-H23 > 100 µM | OVCAR-4 > 100 µM | OVCAR-8 > 100 µM | PC-3 > 100 µM | RXF 393 > 100 µM | SF-295 > 100 µM | SK-MEL-2 > 100 µM | SK-OV-3 > 100 µM | SW-620 > 100 µM | U-251 > 100 µM | UACC-257 > 100 µM | UACC-62 > 100 µM

O=C(NO)c1cccc(OCc2ccc(Br)cc2)c1
inactive: ACHN 3.03 µM | HCC 2998 7.52 µM | HCT-116 4.35 µM | HOP-92 7.8 µM | HT-29 6.98 µM | KM12 5.4 µM | MDA-MB-435 5.73 µM | Malme-3M 2.37 µM | NCI-H23 3.79 µM | OVCAR-4 5.24 µM | OVCAR-8 1.32 µM | PC-3 5.89 µM | RXF 393 3.52 µM | SF-295 4.79 µM | SK-MEL-2 11.3 µM | SK-OV-3 5.21 µM | SW-620 6.55 µM | U-251 4.63 µM | UACC-257 10.5 µM | UACC-62 4.15 µM

Cc1ccc(-n2cnc3c(N)nc(N)nc32)cc1
inactive: ACHN > 100 µM | HCC 2998 76.2 µM | HCT-116 > 100 µM | HOP-92 > 100 µM | HT-29 > 100 µM | KM12 42.6 µM | MDA-MB-435 > 100 µM | Malme-3M > 100 µM | NCI-H23 > 100 µM | OVCAR-4 > 100 µM | OVCAR-8 > 100 µM | PC-3 > 100 µM | RXF 393 43.6 µM | SF-295 > 100 µM | SK-MEL-2 > 100 µM | SK-OV-3 > 100 µM | SW-620 > 100 µM | U-251 > 100 µM | UACC-257 > 100 µM | UACC-62 84.1 µM

O=c1[nH]cc(/C=N\Nc2ccccc2)c(=O)[nH]1
inactive: ACHN 68.9 µM | HCC 2998 > 100 µM | HCT-116 > 100 µM | HOP-92 > 100 µM | HT-29 49.2 µM | KM12 > 100 µM | MDA-MB-435 > 100 µM | Malme-3M > 100 µM | NCI-H23 > 100 µM | OVCAR-4 > 100 µM | OVCAR-8 > 100 µM | PC-3 > 100 µM | RXF 393 > 100 µM | SF-295 25.7 µM | SK-MEL-2 > 100 µM | SK-OV-3 > 100 µM | SW-620 > 100 µM | U-251 > 100 µM | UACC-257 > 100 µM | UACC-62 66.7 µM

CC1=C(O)C(=O)C=C2C1=CC=C1[C@@]2(C)CC[C@@]2(C)C3C[C@@H](C)C(=O)[C@@H](O)[C@]3(C)CC[C@]12C (stereo not given in full)
inactive: ACHN 1.7 µM | HCC 2998 2.95 µM | HCT-116 1.72 µM | HOP-92 2.03 µM | HT-29 1.97 µM | KM12 5.86 µM | MDA-MB-435 2.24 µM | Malme-3M 1.97 µM | NCI-H23 1.97 µM | OVCAR-4 3.32 µM | OVCAR-8 2.39 µM | PC-3 2.02 µM | RXF 393 1.9 µM | SF-295 4.55 µM | SK-MEL-2 5.05 µM | SK-OV-3 9.04 µM | SW-620 1.24 µM | U-251 1.85 µM | UACC-257 2.83 µM | UACC-62 1.79 µM

Nc1ccn(C2OC(COC(=O)C34CC5CC(CC(C5)C3)C4)C(O)C2O)c(=O)n1 (stereo not given)
inactive: ACHN 1.77 µM | HCC 2998 > 69.3 µM | HCT-116 2.75 µM | HOP-92 > 100 µM | HT-29 > 57.5 µM | KM12 > 100 µM | MDA-MB-435 > 100 µM | Malme-3M > 100 µM | NCI-H23 12.2 µM | OVCAR-4 > 100 µM | OVCAR-8 24.2 µM | PC-3 > 100 µM | RXF 393 > 100 µM | SF-295 > 100 µM | SK-MEL-2 > 100 µM | SK-OV-3 > 79.8 µM | SW-620 > 100 µM | U-251 > 100 µM | UACC-257 > 100 µM | UACC-62 > 100 µM

COc1ccc2c(c1)CC1Cc3cc(OC)c(OC)cc3CN1CC2 (stereo not given)
inactive: ACHN 21.5 µM | HCC 2998 33.4 µM | HCT-116 23.5 µM | HOP-92 11.6 µM | HT-29 10.1 µM | KM12 34.7 µM | MDA-MB-435 37.9 µM | Malme-3M 40.2 µM | NCI-H23 46.5 µM | OVCAR-4 38.5 µM | OVCAR-8 33.8 µM | PC-3 37.4 µM | RXF 393 21 µM | SF-295 32.7 µM | SK-MEL-2 70.1 µM | SK-OV-3 71.6 µM | SW-620 47.1 µM | U-251 49.5 µM | UACC-257 33.8 µM | UACC-62 25.2 µM

O=S1(=O)CCN(c2ccccc2CC(c2c[nH]c3ccccc23)c2c[nH]c3ccccc23)CC1
inactive: ACHN 5.04 µM | HCC 2998 3.64 µM | HCT-116 4.47 µM | HOP-92 5.37 µM | HT-29 4.59 µM | KM12 3.9 µM | MDA-MB-435 5.62 µM | Malme-3M 11.5 µM | NCI-H23 6.67 µM | OVCAR-4 7.91 µM | OVCAR-8 8.55 µM | PC-3 3.64 µM | RXF 393 7.03 µM | SF-295 8.02 µM | SK-MEL-2 6.24 µM | SK-OV-3 8.67 µM | SW-620 3.92 µM | U-251 7.87 µM | UACC-257 5.15 µM | UACC-62 8.99 µM
